From US20050233413A1, “Neuroprotective polypeptides and methods of use” (priority 2002, published 2005)
Where no end group is shown, it is not given here.

B1: (S7A)HN-DYKDDDDK (S7A-FLAG) (peptide)
peptide: MAPRGFACLLLLTSEIDLPVKRRADYKDDDDK
notes: Synthetic C-terminally FLAG-tagged peptide; also called (S7A)HN-FLAG

Experiments:
HN (self-dimerization) [1] = target: T1, HN (self-dimerization) (Homo sapiens, UniProt Q8IVG9); assay: Dimerization experiment (Ni-bead precipitation of FLAG-tagged peptide by (His)6-tagged peptide); assay type: binding; settings: excess amounts of competitor
T1 construct: host or cells: chemically synthesised peptide (no expression host)
T1 sequence (Q8IVG9 whole entry): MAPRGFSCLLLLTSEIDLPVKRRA
Procedure: (§1) Synthetic (His)6-tagged HN derivative peptides (1 nmol) was incubated with 20 μl of Ni-NTA agarose (QIAGEN, Hilden, Germany) in a total volume of 0.5 ml of buffer A [20 mM Tris/HCl (pH8.0) and 1 mM DTT] for 1 hr at 4° C. and washed once with buffer B [20 mM Tris/HCl (pH 7.4), 1 mM DTT, and 150 mM NaCl]. Synthetic FLAG-tagged peptides (1 nmol) were mixed with the beads immobilizing (His)6-tagged peptides in a total volume of 0.5 ml of buffer B for 2 hr at 4° C. on a rotating shaker, and washed three times with buffer B. The washed beads were mixed with 20 μl of 2× sampling buffer [100 mM Tris/HCl (pH6.8), 200 mM DTT, 4% (w/v) SDS, 0.2% bromophenol blue, and 20% (v/v) glycerol] and boiled. The supernatant was submitted to Tris/Tricine SDS-PAGE, followed by immunoblotting analysis with 1/5000 anti-FLAG monoclonal antibody M2 (Sigma).

HN (self-dimerization) [2] = target: T2, HN (self-dimerization) (Homo sapiens, UniProt Q8IVG9, S7A); assay: as above; assay type: binding; settings: excess amounts of competitor
T2 construct: host or cells: chemically synthesised peptide (no expression host)
T2 sequence (Q8IVG9 with tags, fused parts or gaps S7A): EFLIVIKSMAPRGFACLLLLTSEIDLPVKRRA
Procedure: as §1

Aβ and V642I-APP = assay type: cell-based; settings: Table 5, marked **
In short: (§2)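 Rat/mouse hybrid F11 neuronal cells were transfected with FAD genes, then cultured 67 h with or without HN peptides; mortality was scored by Trypan blue exclusion 72 h post-transfection. Mouse primary cortical neurons were preincubated 16 h with HN, exposed to 25 μM Aβ for 72 h, and viability measured by WST-8 (OD450) and Calcein-AM fluorescence.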

[3] = tested on: primary cultured neurons treated with 25 μM Aβ1-43; assay type: cell-based; settings: 25 μM Aβ1-43, primary neurons
In short: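 Mouse primary cortical neurons (serum-free, N2 supplement), mostly at 5×10^4 cells/well, were preincubated 16 h ± 10 μM HN. They were then exposed to 25 μM Aβ ± 10 μM HN for 72 h at 37 °C. Viability was measured 2 h after adding WST-8 (OD450) and Calcein-AM (ex 485/em 535 nm).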

[4] = tested on: F11 cells transfected with V642I-APP, NL-APP, M146L-PS1 or N141I-PS2 cDNA; assay type: cell-based, rat/mouse hybrid; settings: each of V642I-APP, read-out: IC50 of suppression of neuronal cell death by FAD genes
Source text: F11 cells, the hybrid of a rat embryonic-day-13 primary cultured primary neuron and a mouse neuroblastoma cell, are one of the best models for primary cultured neurons as they carry representative characteristics of primary neurons, such as generation of action potentials without differentiation by NGF [22]. They have been used in various studies of is neuronal functions. Using these cells, the underlying mechanisms for cytotoxicity by V642I-APP have well been analyzed. Cytotoxicity by V642 mutants of APP has also been confirmed in multiple different systems. F11 cells were grown in Ham's F-12 (GibcoBRL, Gaithersburg, Md.) plus 18% fetal bovine serum (FBS; Hyclone, Logan, Utah) and antibiotics, as described previously. F11 cells (7×10^4 cell/well in a 6-well plate cultured in Ham's F-12 plus 18% FBS for 12-16 hr) were transfected with plasmids encoding FAD genes by lipofection [FAD cDNA 2 μg, LipofectAMINE 4 μl, PLUS reagent 8 μl (GibcoBRL)] in the absence of serum for 3 hr, and were incubated with Ham's F-12 plus 18% FBS for 2 hr. Then, culture media were changed to Ham's F-12 plus 10% FBS with or without HN peptides, and cells were cultured for an additional 67 hr. Seventy-two hr after transfection, cell mortality was measured by Trypan blue exclusion assay, performed as follows. Cells were suspended by pipetting gently, and 50 μl of 0.4% (finally 0.08%) Trypan blue solution (Sigma, St Louis, Mo.) was mixed with 200 μl of the cell suspension at room temperature. Stained cells were counted within 3 min after the mixture with Trypan blue solution.

[5] = tested on: Aβ and four FAD genes (V642I-APP, NL-APP, M146L-PS1, and N141I-PS2); assay type: cell-based; settings: Table 5, marked *
In short: as §2

[6] = tested on: primary cultured neurons treated with 25 μM Aβ1-43; settings: as described previously [16]; read-out: IC50 of the HNG action against Aβ1-43-induced neuronal death; cited from earlier work
[7] = Apparent stability of peptides in the culture medium; assay type: physicochemical; settings: 72-hr incubation of 10 μM peptides in the cultured medium; data not shown
Source text: The Ser^7 residue plays a role different from that of Ser^14. S7A substitution nullified the action of HN, while Ser^7 racemation had no influence. […] Given the fact that EFLIVIKS or EFLIVKS is the established amino acid sequence to form a dimer and that EFLIVIKS alone had no cytoprotective action, it is most likely that Ser^7 is essential for HN to self-dimerize and that self-dimerization of HN is essential for the action of HN. […] This level of stability alterations could not account for the drastic potentiation of the rescue action by the fusion with EFLIVIKS.

(His)6-(S7A)HN = target: T3, (His)6-(S7A)HN; assay: Ni-bead pull-down, anti-FLAG immunoblot
T3 construct: Synthetic peptide, immobilised on Ni-NTA agarose; also called His-S7A
T3 peptide: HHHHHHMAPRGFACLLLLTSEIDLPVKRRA
Procedure: as §1, with “(His)₆-tagged” for “(His)6-tagged”
Synthetic (His)₆-HN was mixed with synthetic HN-FLAG, and precipitated by Ni-beads. The precipitate was examined with an anti-FLAG antibody for HN-FLAG. […] Under the same conditions, (S7A)HN-FLAG was not precipitated by (His)₆-(S7A)HN. EF-(S7A)HN-FLAG was precipitated by (His)₆-EF-(S7A)HN as efficiently as HN-FLAG precipitation by (His)₆-HN.

Row | Molecule | effect of excess competitor on HN-FLAG precipitation by (His)6-HN (HN (self-dimerization) [1]) | effect of excess competitor on EF-(S7A)HN-FLAG precipitation by (His)6-EF-(S7A)HN (HN (self-dimerization) [2]) | Full protection (Aβ and V642I-APP) | IC50 (Aβ and V642I-APP) [µM] | concentration up to which no neuroprotection against Aβ1-43 was exerted [3] [µM] | IC50 [4] [nM] | Full protection (minimal concentration that exerted full cytoprotection) [5] | IC50 [6] [nM] | amount of peptide relative to the amount at time zero [7] | binding result ((His)6-(S7A)HN)
1 | EFLIVIKS [dimerization peptide, reference compound] | could not interfere | blocked | NE** (the corresponding peptide had no cytoprotective effect at 10 μM) | > 10 | > 100 |  |  |  |  | 
2 | MAPRGFSCLLLLTGEIDLPVKRRA [HNG, reference compound] | abolished |  |  |  |  | ~0.03 | ˜10 nM | ~0.5 | about ⅔ | 
3 | B1 |  |  |  |  |  |  |  |  |  | no binding (tested: 1 nmol of each peptide in 0.5 ml)
